Source: ChEMBL document CHEMBL6153102, “Rational Design, Synthesis, and Biological Evaluation of Novel c-Met Degraders for Lung Cancer Therapy” (J Med Chem, 2025)
The source made the active and inactive calls. The calls are words filed in the database; no cut-off is given here.

Experiments:
[1] = target: T1, Protein cereblon/Hepatocyte growth factor receptor (Homo sapiens, UniProt P08581+Q96SW2); experiment: PROTAC activity at c-Met/CRBN in human EBC-1 cells assessed as induction of c-Met degradation at 100 nM incubated for 24 hrs by Western blotting analysis relative to control; format: cell-based
Target sequence in this assay (P08581 25-1390 limits assumed): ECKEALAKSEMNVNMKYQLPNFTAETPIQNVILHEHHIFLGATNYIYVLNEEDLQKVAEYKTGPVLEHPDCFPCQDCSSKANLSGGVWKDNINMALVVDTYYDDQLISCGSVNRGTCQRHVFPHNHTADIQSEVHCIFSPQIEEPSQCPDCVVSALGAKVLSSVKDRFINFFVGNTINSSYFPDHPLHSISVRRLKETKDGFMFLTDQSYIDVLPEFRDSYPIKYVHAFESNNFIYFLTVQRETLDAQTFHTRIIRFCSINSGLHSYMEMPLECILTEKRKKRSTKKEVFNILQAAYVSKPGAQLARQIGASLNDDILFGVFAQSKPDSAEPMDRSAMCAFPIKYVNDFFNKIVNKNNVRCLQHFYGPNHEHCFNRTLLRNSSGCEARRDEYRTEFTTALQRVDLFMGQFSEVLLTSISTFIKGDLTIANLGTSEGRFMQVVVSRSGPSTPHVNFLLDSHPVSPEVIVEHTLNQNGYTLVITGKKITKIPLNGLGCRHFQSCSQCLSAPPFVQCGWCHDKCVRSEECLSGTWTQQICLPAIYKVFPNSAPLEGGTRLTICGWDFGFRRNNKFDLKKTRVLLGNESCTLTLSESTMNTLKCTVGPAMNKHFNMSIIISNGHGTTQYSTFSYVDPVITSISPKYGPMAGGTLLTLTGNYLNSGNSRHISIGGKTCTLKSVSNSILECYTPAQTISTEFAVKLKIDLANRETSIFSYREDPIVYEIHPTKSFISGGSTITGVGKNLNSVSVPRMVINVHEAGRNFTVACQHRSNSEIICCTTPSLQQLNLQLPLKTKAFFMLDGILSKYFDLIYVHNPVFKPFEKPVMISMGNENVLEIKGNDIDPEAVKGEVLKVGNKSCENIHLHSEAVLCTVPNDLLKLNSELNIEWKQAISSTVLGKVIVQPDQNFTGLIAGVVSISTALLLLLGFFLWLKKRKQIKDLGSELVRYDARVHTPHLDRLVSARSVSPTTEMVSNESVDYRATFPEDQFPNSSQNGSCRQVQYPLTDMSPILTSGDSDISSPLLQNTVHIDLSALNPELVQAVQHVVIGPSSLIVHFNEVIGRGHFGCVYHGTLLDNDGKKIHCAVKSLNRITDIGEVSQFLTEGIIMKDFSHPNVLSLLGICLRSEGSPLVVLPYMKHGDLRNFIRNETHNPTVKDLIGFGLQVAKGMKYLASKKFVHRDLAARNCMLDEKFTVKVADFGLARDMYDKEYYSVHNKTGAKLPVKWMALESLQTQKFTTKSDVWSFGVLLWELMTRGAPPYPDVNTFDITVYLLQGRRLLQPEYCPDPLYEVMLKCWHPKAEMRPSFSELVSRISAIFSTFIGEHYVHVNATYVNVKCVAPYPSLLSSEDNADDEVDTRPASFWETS
Target sequence in this assay (Q96SW2 whole entry partner): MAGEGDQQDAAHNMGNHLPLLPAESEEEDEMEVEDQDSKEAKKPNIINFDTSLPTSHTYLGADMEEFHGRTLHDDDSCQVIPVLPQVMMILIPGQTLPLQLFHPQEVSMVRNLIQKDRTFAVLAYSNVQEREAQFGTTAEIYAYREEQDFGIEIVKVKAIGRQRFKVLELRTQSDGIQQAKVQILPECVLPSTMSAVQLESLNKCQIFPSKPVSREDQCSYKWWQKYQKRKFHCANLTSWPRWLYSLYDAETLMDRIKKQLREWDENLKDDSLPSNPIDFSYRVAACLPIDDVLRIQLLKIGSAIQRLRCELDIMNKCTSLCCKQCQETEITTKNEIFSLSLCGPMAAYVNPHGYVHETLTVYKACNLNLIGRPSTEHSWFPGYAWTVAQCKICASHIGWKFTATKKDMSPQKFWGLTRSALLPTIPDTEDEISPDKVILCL

[2] = Cmax in Sprague-Dawley rat at 5 mg/kg, ip measured upto 24 hrs by LC-MS/MS analysis; format: ADME, organism-based; details: in vivo
[3] = target: T1, Protein cereblon/Hepatocyte growth factor receptor; experiment: PROTAC activity at c-Met/CRBN in human HCT-116 cells assessed as induction of c-Met degradation at 100 nM incubated for 24 hrs by Western blotting analysis relative to control; format: cell-based
Target sequence in this assay (P08581 25-1390 limits assumed): as the sequence (P08581 25-1390 limits assumed) above
Target sequence in this assay (Q96SW2 whole entry partner): as the sequence (Q96SW2 whole entry partner) above

[4] = Volume of distribution at steady state in Sprague-Dawley rat at 2 mg/kg, iv measured upto 24 hrs by LC-MS/MS analysis; format: ADME, organism-based; details: in vivo
[5] = target: T1, Protein cereblon/Hepatocyte growth factor receptor; experiment: PROTAC activity at c-Met/CRBN in human A549 cells assessed as induction of c-Met degradation incubated for 24 hrs by Western blotting analysis; format: cell-based
Target sequence in this assay (P08581 whole entry): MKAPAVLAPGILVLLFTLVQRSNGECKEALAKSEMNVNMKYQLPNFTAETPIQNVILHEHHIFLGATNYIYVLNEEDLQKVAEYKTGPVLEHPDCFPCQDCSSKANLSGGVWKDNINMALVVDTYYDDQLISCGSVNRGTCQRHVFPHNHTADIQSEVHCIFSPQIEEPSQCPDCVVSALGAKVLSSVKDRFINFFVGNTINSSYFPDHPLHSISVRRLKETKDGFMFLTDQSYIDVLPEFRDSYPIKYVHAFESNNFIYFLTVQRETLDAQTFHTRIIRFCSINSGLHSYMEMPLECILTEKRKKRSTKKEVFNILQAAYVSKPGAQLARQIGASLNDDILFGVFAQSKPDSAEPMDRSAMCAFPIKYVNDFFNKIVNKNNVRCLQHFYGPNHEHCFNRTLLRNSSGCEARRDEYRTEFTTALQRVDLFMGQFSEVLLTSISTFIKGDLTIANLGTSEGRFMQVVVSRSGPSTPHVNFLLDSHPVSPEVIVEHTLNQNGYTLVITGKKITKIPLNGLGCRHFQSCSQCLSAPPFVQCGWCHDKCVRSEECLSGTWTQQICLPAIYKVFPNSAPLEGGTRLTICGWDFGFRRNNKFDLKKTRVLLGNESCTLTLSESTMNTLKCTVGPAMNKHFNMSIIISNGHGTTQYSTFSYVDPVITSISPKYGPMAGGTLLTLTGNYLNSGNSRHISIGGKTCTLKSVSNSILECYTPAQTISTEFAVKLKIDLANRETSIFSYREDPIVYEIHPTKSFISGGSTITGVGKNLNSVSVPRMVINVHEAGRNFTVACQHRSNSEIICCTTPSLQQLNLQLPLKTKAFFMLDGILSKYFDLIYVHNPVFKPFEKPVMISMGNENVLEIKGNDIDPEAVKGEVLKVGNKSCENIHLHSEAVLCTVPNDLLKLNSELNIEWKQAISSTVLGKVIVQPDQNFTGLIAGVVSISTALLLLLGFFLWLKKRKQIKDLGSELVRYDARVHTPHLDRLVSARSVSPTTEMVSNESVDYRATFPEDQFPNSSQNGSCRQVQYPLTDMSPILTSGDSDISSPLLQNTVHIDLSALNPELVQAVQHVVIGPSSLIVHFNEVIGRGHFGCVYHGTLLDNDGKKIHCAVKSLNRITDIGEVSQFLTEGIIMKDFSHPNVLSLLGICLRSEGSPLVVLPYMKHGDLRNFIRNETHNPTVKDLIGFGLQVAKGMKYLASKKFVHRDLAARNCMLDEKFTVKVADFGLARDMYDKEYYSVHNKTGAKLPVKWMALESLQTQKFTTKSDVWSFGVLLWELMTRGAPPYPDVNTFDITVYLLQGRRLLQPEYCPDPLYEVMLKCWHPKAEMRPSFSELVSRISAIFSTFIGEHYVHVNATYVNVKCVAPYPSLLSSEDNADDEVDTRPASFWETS
Target sequence in this assay (Q96SW2 whole entry): as the sequence (Q96SW2 whole entry partner) above

EBC-1 [6] = experiment: Induction of apoptosis in human EBC-1 cells assessed as viable cells at 50 nM incubated for 24 hrs by Annexin V/FITC staining based flow cytometry analysis (reference value: 95.9%); format: functional; details: read-out: Activity
[7] = target: T1, Protein cereblon/Hepatocyte growth factor receptor; experiment: PROTAC activity at c-Met/CRBN in human EBC-1 cells assessed as induction of c-Met degradation at 15.6 nM incubated for 24 hrs by Western blotting analysis relative to control; format: cell-based
Target sequence in this assay (P08581 25-1390 limits assumed): as the sequence (P08581 25-1390 limits assumed) above
Target sequence in this assay (Q96SW2 whole entry partner): as the sequence (Q96SW2 whole entry partner) above

EBC-1 [8] = experiment: PROTAC activity at c-Met Y1230C mutant /CRBN in human EBC-1 cells assessed as induction of c-Met degradation up to 1000 nM incubated for 24 hrs by Western blotting analysis; format: cell-based
[9] = target: T1, Protein cereblon/Hepatocyte growth factor receptor; experiment: PROTAC activity at c-Met/CRBN in human HCT-116 cells assessed as induction of c-Met degradation incubated for 24 hrs by Western blotting analysis; format: cell-based
Target sequence in this assay (P08581 whole entry): as the sequence (P08581 whole entry) above
Target sequence in this assay (Q96SW2 whole entry): as the sequence (Q96SW2 whole entry partner) above

EBC-1 [10] = experiment: Antiproliferative activity against human EBC-1 cells assessed as cell viability incubated for 72 hrs by MTT assay; format: functional, cell-based; details: EBC-1, 72 h
EBC-1 [11] = experiment: Induction of apoptosis in human EBC-1 cells assessed as upregulation of cleaved caspase-3 level incubated for 24 hrs by Western blot analysis; format: functional, cell-based; details: dose 5-50 nM
EBC-1 [12] = experiment: Induction of apoptosis in human EBC-1 cells assessed as early apoptotic cells at 5 nM incubated for 24 hrs by Annexin V/FITC staining based flow cytometry analysis (reference value: 2.11 %); format: functional
[13] = Stability in rat plasma assessed as half life; format: ADME, cell-free
[14] = target: T1, Protein cereblon/Hepatocyte growth factor receptor; experiment: PROTAC activity at c-Met/CRBN in human EBC-1 cells assessed as induction of c-Met degradation incubated for 24 hrs by Western blotting analysis; format: cell-based
[15] = Half life in Sprague-Dawley rat at 2 mg/kg, iv measured upto 24 hrs by LC-MS/MS analysis; format: ADME, organism-based; details: in vivo
[16] = target: T1, Protein cereblon/Hepatocyte growth factor receptor; experiment: PROTAC activity at c-Met/CRBN in human A549 cells assessed as induction of c-Met degradation at 15.6 nM by Western blotting analysis; format: cell-based; details: time 72.0 hrs
Target sequence in this assay (P08581 25-1390 limits assumed): as the sequence (P08581 25-1390 limits assumed) above
Target sequence in this assay (Q96SW2 whole entry partner): as the sequence (Q96SW2 whole entry partner) above

[17] = target: T1, Protein cereblon/Hepatocyte growth factor receptor; experiment: PROTAC activity at c-Met/CRBN in human EBC-1 cells assessed as reduction in c-Met level at 3.9 to 125 nM incubated for 24 hrs in presence of lenalidomide by Western blot analysis; format: cell-based; details: dose 3.9-125 nM
Target sequence in this assay (P08581 25-1390 limits assumed): as the sequence (P08581 25-1390 limits assumed) above
Target sequence in this assay (Q96SW2 whole entry partner): as the sequence (Q96SW2 whole entry partner) above

[18] = Metabolic stability in human liver microsome assessed as clearance; format: ADME; details: liver microsomes, read-out: CLH
[19] = AUC (0 to infinity) in Sprague-Dawley rat at 2 mg/kg, iv measured upto 24 hrs by LC-MS/MS analysis; format: ADME, organism-based; details: in vivo
[20] = Apparent volume of distribution in Sprague-Dawley rat at 2 mg/kg, iv measured upto 24 hrs by LC-MS/MS analysis; format: ADME, organism-based; details: in vivo
EBC-1 [21] = experiment: Antitumor activity against human EBC-1 cells xenografted BALB/c nude mouse assessed as reduction in tumor volume at 10 mg/kg, ip administered for 7 days; format: functional; parameters: scale not given: the % may be the effect or the level left; details: time 7 day
[22] = target: T1, Protein cereblon/Hepatocyte growth factor receptor; experiment: PROTAC activity at c-Met/CRBN in human EBC-1 cells assessed as reduction in TXNDC9 level at 15.6 nM incubated for 24 hrs by proteomics analysis; format: cell-based
Target sequence in this assay (P08581 25-1390 limits assumed): as the sequence (P08581 25-1390 limits assumed) above
Target sequence in this assay (Q96SW2 whole entry partner): as the sequence (Q96SW2 whole entry partner) above

EBC-1 [23] = experiment: Antitumor activity against human EBC-1 cells xenografted BALB/c nude mouse assessed as reduction in tumor volume at 20 mg/kg, ip administered for 7 days; format: functional; parameters: scale not given: the % may be the effect or the level left; details: time 7 day
[24] = target: T1, Protein cereblon/Hepatocyte growth factor receptor; experiment: PROTAC activity at c-Met/CRBN in human EBC-1 cells assessed as reduction in AKR1C2 level at 15.6 nM incubated for 24 hrs by proteomics analysis; format: cell-based
[25] = target: T1, Protein cereblon/Hepatocyte growth factor receptor; experiment: PROTAC activity at c-Met/CRBN in human EBC-1 cells assessed as reduction in FOSL1 level at 15.6 nM incubated for 24 hrs by proteomics analysis; format: cell-based
EBC-1 [26] = experiment: Induction of apoptosis in human EBC-1 cells assessed as early apoptotic cells at 15 nM incubated for 24 hrs by Annexin V/FITC staining based flow cytometry analysis (reference value: 2.11 %); format: functional
[27] = MRT (0 to t) in Sprague-Dawley rat at 2 mg/kg, iv measured upto 24 hrs by LC-MS/MS analysis; format: ADME, organism-based; details: in vivo
[28] = target: T1, Protein cereblon/Hepatocyte growth factor receptor; experiment: PROTAC activity at c-Met/CRBN in human EBC-1 cells assessed as reduction in c-Met mRNA level at 3.9 to 125 nM incubated for 24 hrs by qPCR analysis; format: cell-based; details: dose 3.9-125 nM
[29] = Toxicity in BALB/c nude mouse assessed as heart damage at 10 to 20 mg/kg, ip administered for 7 days by H and E staining based analysis; format: organism-based; details: in vivo, 168 h, dose 10-20 mg/kg, time 7 day
MKN-45 = experiment: Antiproliferative activity against human MKN-45 cells assessed as cell viability incubated for 72 hrs by MTT assay; format: functional, cell-based; details: MKN-45, 72 h
[30] = Metabolic stability in rat liver microsome assessed as half life; format: ADME; details: liver microsomes
[31] = AUC (0 to infinity) in Sprague-Dawley rat at 5 mg/kg, ip measured upto 24 hrs by LC-MS/MS analysis; format: ADME, organism-based; details: in vivo
[32] = target: T1, Protein cereblon/Hepatocyte growth factor receptor; experiment: PROTAC activity at c-Met/CRBN in human EBC-1 cells assessed as reduction in TFPI2 level at 15.6 nM incubated for 24 hrs by proteomics analysis; format: cell-based
[33] = Toxicity in BALB/c nude mouse assessed as body weight loss at 10 to 20 mg/kg, ip administered for 7 days; format: organism-based; details: in vivo, 168 h, dose 10-20 mg/kg, time 7 day
[34] = Toxicity in BALB/c nude mouse assessed as spleen damage at 10 to 20 mg/kg, ip administered for 7 days by H and E staining based analysis; format: organism-based; details: in vivo, 168 h, dose 10-20 mg/kg, time 7 day
[35] = Toxicity in BALB/c nude mouse assessed as lung damage at 10 to 20 mg/kg, ip administered for 7 days by H and E staining based analysis; format: organism-based; details: in vivo, 168 h, dose 10-20 mg/kg, time 7 day
Hs746T = experiment: Antiproliferative activity against human Hs746T cells assessed as cell viability incubated for 72 hrs by MTT assay; format: functional, cell-based
[36] = Tmax in Sprague-Dawley rat at 2 mg/kg, iv measured upto 24 hrs by LC-MS/MS analysis; format: ADME, organism-based; details: in vivo

COc1ccc(C(=O)N2CCC3(CCN(C(=O)CN4CCC(COc5cnc(-c6cccc(Cn7nc(-c8cccc(C#N)c8)ccc7=O)c6)nc5)CC4)CC3)CC2)cc1N1CCC(=O)NC1=O
Activity [1]: 90.3%
Cmax [2]: 104 ng/mL
Activity [3]: inactive
Vdss [4]: 36.26 L/kg
DC50 [5]: < 15.6 nM
viability at 0.05 µM (EBC-1 [6]): 62%
Emax [7]: 96.1%
Activity (EBC-1 [8]): Active
DC50 [9]: < 15.6 nM
IC50 (EBC-1 [10]): 4 nM
Activity (EBC-1 [11]): Dose-dependent-effect
Activity (EBC-1 [12]): 29.7%
half-life [13]: > 2 h
DC50 [14]: 0.59 nM
Activity ([14]; dose 0.03 nM): Dose-dependent-effect
t1/2 [15]: 6.9 h
Activity [16]: Time-dependent-effect
Activity [17]: Active
CLint scaled [18]: 57.6 mL/min/kg
AUC(0-inf) [19]: 551 ng·h/mL
Vz [20]: 13.13 L/kg
Activity (EBC-1 [21]): 86.14%
Activity [22]: Active
Activity (EBC-1 [23]): 86.14%
Activity [24]: Active
Activity [25]: Active
Activity (EBC-1 [26]): 30.8%
MRT last at 24 h [27]: 2.49 h
Activity [28]: Active
Activity [29]: Non-toxic
IC50 (MKN-45): 10 nM
half-life [30]: 2.22 h
AUC(0-inf) [31]: 678 ng·h/mL
Activity [32]: Active
Activity [33]: Non-toxic
Activity [34]: Non-toxic
Activity [35]: Non-toxic
IC50 (Hs746T): 8 nM
Tmax [36]: 5.04 min
